The experiment has as its system CRE-dependent transcription (PKA/ERK/CREB intracellular signaling). Briefly: luciferase reporter assay of CRE-dependent gene transcription activity in plasmid-transfected PC12 cells. The class given is cell-based, rat. The protocol:
In order to evaluate the gene transcription activity of each sample, the luciferase reporter assay was performed.
The luciferase assay is used to quantitatively analyze the transcription activity of a test material. In order to activate the transcription, various control sequences present in an upstream promoter of a gene are required.
In this embodiment, a plasmid was used in which a CRE sequence which was a control sequence activated by the PKA/ERK/CREB intracellular signaling and was present in an upstream promoter of a memory, and in which learning-related gene and a gene of a luciferase functioning as a luminescent enzyme were connected to each other.
When the test material activates the CRE-dependent transcription, the luciferase gene present at a downstream side is expressed, and the expression thereof is increased, so that a luciferase protein is increased.
PC12 cells (rat adrenal medulla pheochromocytoma derived cell line) were seeded in 96-well culture dish at a seeding density of 4.0×10^4 cells/well. Subsequently, the plasmid was transfected in the PC12 cell, and the cultivation was performed in a medium to which each of the samples was dripped. As the medium, an α-modified Dulbecco's modified Eagle's medium supplemented with 1% serum (DMEM) was used. […]
(Reporter assays use an easily measured gene product as a stand-in for the process of interest.)

Results on one molecule are retold here after patent US20200323934A1, “PHARMACEUTICAL COMPOSITION AND FOOD” (Sankyo Holdings Co., Ltd., priority 2016, published 2020).

As to `COc1ccc(-c2cc(=O)c3c(OC)c(OC)c(OC)c(OC)c3o2)cc1OC` [Nobiletin, nobiletin], the “concentration at which nobiletin has an enhancing action” value (in combination with Anredera cordifolia, suggested from ponkan's peel extract assumed to contain 1% nobiletin) is at most 2 µg/mL. The “concentration at which nobiletin expresses the luciferase activity” value (nobiletin solution alone) came out at 2 µg/mL.
